Patent US10167262B2, “Herbicidal substituted 3-arylpyrazoles” (FMC CORPORATION, priority 2014, dated 2019)
“And” between values parts separate entries of the source, which are not always exact repeats. Identical values can stand only once.

Experiments:
Experiment in all cases: Test H postemergence mixture test of compound 39 with commercial herbicides, observed and Colby expected effect 0-100
Type in all cases: in vivo
Conditions in all cases: commercial herbicide alone, 14 days after treatment
[1] = tested on: soybean (GLXMA, Glycine max)
Excerpt: (§1) This test evaluated the effect of mixtures of compound 39 with three commercial herbicides on five plant species. Seeds of plant species selected from corn (ZEAMD, Zea mays), soybean (GLXMA, Glycine max), palmer pigweed (AMAPA, Amaranthus palmeri), waterhemp (common waterhemp, AMATA, Amaranthus rudis), and Kochia (KCHSC, Kochia scoparia) were planted in pots containing Redi-Earth® planting medium (Scotts Company, 14111 Scottslawn Road, Marysville, Ohio 43041) comprising spaghnum peat moss, vermiculite, wetting agent and starter nutrients and treated with postemergence applications of test chemicals formulated in a non-phytotoxic solvent mixture which included a surfactant and applied using a volume of 299 L/ha. Each treatment was replicated four times. Treated plants and controls were maintained in a greenhouse using supplemental lighting to maintain a photoperiod of about 16 h; daytime and nighttime temperatures were about 24-30° C. and 19-21° C., respectively. Nutrients were applied using a balanced fertilizer applied through the watering system. At 14 days after treatment, all species were compared to controls and visually evaluated. Plant response ratings were calculated as the mean of the four replicates, are summarized in Tables H1 through H6, and are based on a scale of 0 to 100 where 0 is no effect and 100 is complete control. A dash (-) response means no test result.
(§2) Colby's Equation was used to determine the herbicidal effects expected from the mixtures. Colby's Equation (Colby, S. R. “Calculating Synergistic and Antagonistic Responses of Herbicide Combinations,” Weeds, 15(1), pp 20-22 (1967)) calculates the expected additive effect of herbicidal mixtures and for two active ingredients is of the form: Pa+b=Pa+Pb−(PaPb/100) • where • Pa+b is the percentage effect of the mixture expected from additive contribution of the individual components: • Pa is the observed percentage effect of the first active ingredient at the same use rate as in the mixture, and • Pb is the observed percentage effect of the second active ingredient at the same use rate as in the mixture. In the following Tables, rates are shown in grams of active ingredient per hectare (g a.i./ha); “Obsd.” is the observed effect. “Exp.” is the expected effect calculated from Colby's Equation.

[2] = tested on: Kochia (KCHSC, Kochia scoparia)
Excerpt: as §1, §2

corn (ZEAMD, Zea mays) = tested on: corn (ZEAMD, Zea mays)
Excerpt: as §1, §2

[3] = tested on: waterhemp (common waterhemp, AMATA, Amaranthus rudis)
Excerpt: as §1, §2

[4] = tested on: palmer pigweed (AMAPA, Amaranthus palmeri)
Excerpt: as §1, §2

SMILES	GLXMA Obsd. (observed effect) ([1]; 4 g a.i./ha)	KCHSC Obsd. (observed effect) ([2]; 4 g a.i./ha)	ZEAMD Obsd. (observed effect) (corn (ZEAMD, Zea mays); 4 g a.i./ha)	AMATA Obsd. (observed effect) ([3]; 4 g a.i./ha)	AMAPA Obsd. (observed effect) ([4]; 4 g a.i./ha)	GLXMA Obsd. (observed effect) ([1]; 0.25 g a.i./ha)	GLXMA Obsd. (observed effect) ([1]; 1 g a.i./ha)	KCHSC Obsd. (observed effect) ([2]; 0.25 g a.i./ha)	KCHSC Obsd. (observed effect) ([2]; 1 g a.i./ha)	ZEAMD Obsd. (observed effect) (corn (ZEAMD, Zea mays); 0.25 g a.i./ha)	ZEAMD Obsd. (observed effect) (corn (ZEAMD, Zea mays); 1 g a.i./ha)	AMATA Obsd. (observed effect) ([3]; 0.25 g a.i./ha)	AMATA Obsd. (observed effect) ([3]; 1 g a.i./ha)	AMAPA Obsd. (observed effect) ([4]; 0.25 g a.i./ha)	AMAPA Obsd. (observed effect) ([4]; 1 g a.i./ha)
CS(=O)(=O)c1ccc(C(=O)C2C(=O)CCCC2=O)c([N+](=O)[O-])c1 [Mesotrione, mesotrione]	64 and 62	79 and 72	0	79 and 92	78 and 72	–	–	–	–	–	–	–	–	–	–
CCOC(=O)c1ccccc1S(=O)(=O)NC(=O)Nc1nc(Cl)cc(OC)n1 [Chlorimuron-ethyl, chlorimuron-ethyl]	–	–	–	–	–	0	0	88	97	0	33	77	76	65	86
COc1cc(OC)nc(NC(=O)NS(=O)(=O)c2ncccc2C(=O)N(C)C)n1 [Nicosulfuron, nicosulfuron]	–	–	–	–	–	0	51	43	89	0	0	63	78	3	100
